Source: article PMC8069289 (Molecules, 2021)

How the values were obtained:
[1] = tested on: Drosophila melanogaster; test: Antigenotoxicity, wing spot test, combined treatment with hydrogen peroxide; assay type: in vivo; design: key to Total Spots, statistical diagnosis (Kastenbaum-Bowman test): * (positive); Δ (negative); β (inconclusive) vs. respective positive control
Experimental: All inconclusive and positive results (p > 0.05) were analysed with the nonparametric U-test of Mann, Whitney and Wilcoxon (α = β = 0.05). Anter et al. described the antigenotoxicity method conducted in D. melanogaster. […] Single and twin spots per wing were also recorded and compared with the concurrent negative control as described before. Finally, the inhibition percentages (IP) for the combined treatments were calculated as described by Abraham: IP = [(genotoxin alone-combined treatment)/genotoxin alone] × 100.

[2] = tested on: Drosophila melanogaster; test: Chronic treatments: lifespan and healthspan assays; assay type: in vivo; conditions: for Healthspan (80th Percentile) / Mean Lifespan: chronic, mean ±SE
Experimental: Flies used in the lifespan assays show the same genetic background those used in the genotoxicity assays in order to compare both result. The treated adults consisted of the F1 progeny from mwh and flr^3 parental strains produced by a 24 h eggs-lying in yeast medium. The same compounds and concentrations as in the toxicity/genotoxicity experiments were assayed. Lifespan assays were carried out at 25 °C according to the procedure described by Fernandez-Bedmar et al.. Briefly, synchronized 72 ± 12-h-old trans-heterozygous larvae were washed in distilled water, collected and transferred in groups of 100 individuals into test vials containing 0.85 g Drosophila Instant Medium and 4 mL of the different concentrations of the compounds to be assayed. Emerged adults from pupae were collected under CO2 anaesthesia and placed in groups of 25 individuals of the same sex into sterile vials containing 0.21 g Drosophila Instant Medium and 1 mL of different concentrations of the compounds to be tested. Flies were chronically treated during all their life. The number of survivors was determined twice a week in three different replicates.

[3] = tested on: CHO cells; design: method as in PMID 7588651; conditions: 1 mM TAU; cited from earlier work
[4] = tested on: Drosophila; conditions: cited from earlier work
[5] = tested on: calf thymus DNA; design: method as in PMID 11787620; conditions: 5–20 mM TAU; cited from earlier work
[6] = tested on: Drosophila melanogaster; test: Genotoxicity, wing spot test (SMART); conditions: simple treatment; for Large Simple Spots (>2 Cells) m = 5 / Small Single Spots (1–2 Cells) m = 2 / Total Spots m = 2: No. of spots in parentheses
Experimental: The wing spot test was performed to evaluate genotoxicity assays following the standard procedure [14]. Briefly, trans-heterozygous larvae for mwh and flr^3 genes were obtained by crossing four day-old virgin flr^3 females with mwh males in a 2:1 ratio. Four days after fertilization, females were allowed to lay eggs in fresh yeast medium (25 g yeast and 4 mL sterile distilled water) for 8 h in order to obtain synchronized larvae. After 72 h, larvae were collected, washed with distilled water, and clustered in groups of 100 individuals. […] Adult flies were collected and stored in 70% ethanol until the wings were removed and mounted on slides using Faure’s solution. Mutant spots were assessed in both dorsal and ventral surfaces of the wings in a bright light microscope at 400× magnification. The frequencies of each type of mutant clone per wing (single, large or twin spot) were compared with the concurrent negative control [43]. All inconclusive and positive results (p > 0.05) were analysed with the nonparametric U-test of Mann, Whitney and Wilcoxon (α = β = 0.05).

[7] = TAU 1 mM + 0.15 M H2O2, No. of spots in parentheses
[8] = TAU 32 mM + 0.15 M H2O2, No. of spots in parentheses
[9] = TAU 0.25 mM vs concurrent water control
[10] = TAU 1 mM vs concurrent water control
[11] = TAU 2 mM vs concurrent water control
[12] = TAU 8 mM vs concurrent water control
[13] = TAU 32 mM vs concurrent water control

## NCCS(=O)(=O)O [TAU, 2-aminoethanesulfonic acid]
[1]; TAU 1 mM + 0.15 M H2O2
  IP (%) inhibition percentage: 70.6%
  Large Simple Spots (>2 Cells) m = 5: 0 clones per wing
  Twin Spots m = 5: 0 clones per wing
[1]; [7]
  Small Single Spots (1–2 Cells) m = 2: 0.125 (5) clones per wing
  Total Spots m = 2: 0.125 (5) clones per wing
[1]; TAU 1 mM + 0.15 M H2O2 vs positive control
  Total Spots, statistical diagnosis (Kastenbaum-Bowman test): *
[1]; TAU 32 mM + 0.15 M H2O2
  IP (%) inhibition percentage: 38.1%
  Twin Spots m = 5: 0 clones per wing
[1]; [8]
  Large Simple Spots (>2 Cells) m = 5: 0.026 (1) clones per wing
  Small Single Spots (1–2 Cells) m = 2: 0.236 (9) clones per wing
  Total Spots m = 2: 0.263 (10) clones per wing
[1]; TAU 32 mM + 0.15 M H2O2 vs positive control
  Total Spots, statistical diagnosis (Kastenbaum-Bowman test): *
[2]; [9]
  Healthspan Difference (%): −7.3%
  Mean Lifespan Difference (%): 4.57%
[2]; TAU 0.25 mM
  Healthspan (80th Percentile): 34.98 ± 3.954 days
  Mean Lifespan: 67.94 ± 2.603 days
[2]; [10]
  Healthspan Difference (%): −20%
  Mean Lifespan Difference (%): 2.81%
[2]; TAU 1 mM
  Healthspan (80th Percentile): 30.22 ± 1.878 days
  Mean Lifespan: 66.81 ± 3.215 days
[2]; [11]
  Healthspan Difference (%): −6.4%
  Mean Lifespan Difference (%): −4.8%
[2]; TAU 2 mM
  Healthspan (80th Percentile): 35.357 ± 0.9 days
  Mean Lifespan: 61.83 ± 2.25 days
[2]; [12]
  Healthspan Difference (%): −2.6%
  Mean Lifespan Difference (%): 7.95%
[2]; TAU 8 mM
  Healthspan (80th Percentile): 36.8 ± 2.832 days
  Mean Lifespan: 70.142 ± 2.385 days
[2]; [13]
  Healthspan Difference (%): −3.2%
  Mean Lifespan Difference (%): 1.6%
[2]; TAU 32 mM
  Healthspan (80th Percentile): 36.57 ± 3.55 days
  Mean Lifespan: 66.04 ± 2.055 days
[2]; all tested concentrations
  lifespan compared with concurrent control: did not significantly differ
[3]
  induction of chromosome aberrations and sister chromatid exchanges: not able to induce neither chromosome aberrations nor sister chromatid exchanges
[4]; 1.6% TAU
  lifespan of Drosophila: decrease the lifespan
[4]; TAU 0.05 to 0.20 M
  adult lifespan of Drosophila: had no influence on adult lifespan
[4]; TAU 8–24 mM
  estimated mean values of survival: increased the estimated mean values of survival
[5]
  protection of DNA against oxidative damage: DNA-protected concentrations against oxidative damage
[6]; TAU 1 mM
  Twin Spots m = 5: 0 clones per wing
  Large Simple Spots (>2 Cells) m = 5: 0.08 (3) clones per wing
  Small Single Spots (1–2 Cells) m = 2: 0.027 (1) clones per wing
  Total Spots m = 2: 0.108 (4) clones per wing
[6]; TAU 32 mM
  Twin Spots m = 5: 0 clones per wing
  Large Simple Spots (>2 Cells) m = 5: 0.05 (2) clones per wing
  Small Single Spots (1–2 Cells) m = 2: 0.15 (6) clones per wing
  Total Spots m = 2: 0.2 (8) clones per wing
